Consider one compound from US8367727B2, “Method of using abscisic acid to treat diseases and disorders” (priority 2006, dated 2013).

Marks after values point to notes of the source that are not given here.

In one experiment the test system is db/db mice. The experiment can be described thus: Fasting blood glucose in db/db mice fed high-fat diets for 36 days. The class given is in vivo. To be noted: day 36. On the procedure: Four week-old, male BKS.Cg-+Lepr^db/+Lepr^db/OlaHsd (db/db) mice were purchased from Harlan Laboratories (Indianapolis, Ind.) and maintained at the animal facilities at Virginia Polytechnic Institute and State University in a room maintained at 75° F., with a 12:12 h light-dark cycle starting from 6:00 AM. All experimental procedures were approved by the Institutional Animal Care and Use Committee of Virginia Polytechnic Institute and State University and met or exceeded requirements of the Public Health Service/National Institutes of Health and the Animal Welfare Act.
Experiment 1: mice (n=25) were fed high-fat (>40% energy from fat), isocaloric, isonitrogenous diets containing 0, 100, 200, 400, and 800 mg of a racemic (±) ABA mixture/kg diet for 36 days (Table 1) (Sigma). These doses were chosen based on the standard concentrations of TZDs utilized in the treatment of NIDDM. The mice were weighed and their food intake was recorded daily. On day 36 of the study fasted mice (12 h) were bled through the caudal vein and fasting blood glucose concentrations were determined. To investigate the ability of ABA to normalize glucose concentrations, an intraperitoneal glucose tolerance test (IPGTT) was performed on day 36 on the fasted mice. Briefly, mice were bled at 0, 10, 25, and 45 minutes following the administration of glucose (2 g/kg) for measurement of plasma glucose levels. […] Weights were recorded for WAT, interscapular brown adipose tissue (BAT), and liver.
Experiment 2: The ABA dose utilized (100 mg ABA/kg) was based on the results obtained from the IPGTT of the ABA titration study (i.e., Experiment 1). Mice in experiment 2 were fed high-fat diets containing 0 or 100 mg ABA/kg for 36 days. Their body weights and food intake was recorded daily, and blood was collected on day 36 of the study during an IPGTT. This IPGTT included one additional 100 minutes time point. […] Weights were recorded for abdominal WAT, BAT, and liver.
Experiment 1 was a dose-titration study, where we fed 4-week old db/db mice (n=25) diabetogenic, high fat diets containing either 0, 100, 200, 400, or 800 mg racemic ABA mixture/kg diet. […] These in vivo results are in agreement with the transfection findings showing no difference in PPAR γ transactivation between 10 and 50 μM ABA.

The next experiment deals with T1, PPAR γ (Mus musculus, UniProt P37238).
T1 construct: expressed in transfected cells; host or cells: 3T3-L1 pre-adipocytes (ATCC)
T1 sequence (P37238 1-505): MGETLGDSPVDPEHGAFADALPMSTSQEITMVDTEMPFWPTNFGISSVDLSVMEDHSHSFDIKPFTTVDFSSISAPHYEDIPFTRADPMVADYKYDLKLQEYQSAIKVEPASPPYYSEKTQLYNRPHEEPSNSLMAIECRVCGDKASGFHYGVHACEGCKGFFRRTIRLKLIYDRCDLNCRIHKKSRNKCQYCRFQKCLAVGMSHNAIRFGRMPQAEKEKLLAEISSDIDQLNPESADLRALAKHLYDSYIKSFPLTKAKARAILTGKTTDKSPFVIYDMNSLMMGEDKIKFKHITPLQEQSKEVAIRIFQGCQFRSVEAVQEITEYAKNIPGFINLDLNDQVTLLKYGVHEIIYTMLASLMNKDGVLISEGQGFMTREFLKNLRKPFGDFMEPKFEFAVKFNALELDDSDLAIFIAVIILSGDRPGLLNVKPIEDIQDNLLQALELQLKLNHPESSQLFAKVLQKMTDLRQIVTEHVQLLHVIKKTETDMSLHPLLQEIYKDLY
In words: PPAR γ transactivation (luciferase reporter) in transfected 3T3-L1 pre-adipocytes. In kind it is cell-based. On the procedure: Transformation plasmid DNA was performed using One Shot TOP10 (Invitrogen, Carlsbad, Calif.). Briefly, […] of the ligation reaction were added to a thawed 50 μl vial of One Shot® cells for each reaction. The vials were then set on ice for 30 minutes, followed by 30 seconds incubation in a 42° C. water bath. Afterwards, 250 μl of pre-warmed S.O.C medium was added to each vial. Vials were then secured on their sides in a microcentrifuge rack and were placed in a Gyromax 727 orbital shaking incubator (Amerex Instruments, Lafayette, Calif.) and incubated at 37° C. at 225 rpm. After 1 hour incubation, 100 μl of each transformation vial was spread on separate, labeled LB agar plates (Sigma-Aldrich, Milwaukee, Wis.), inverted, and incubated at 37° C. overnight. Colonies were selected and isolated using Plasmid Maxi Kit (Qiagen, Valencia, Calif.) according to manufacturer's instructions. After isolation, the plasmids were transfected into 3T3-L1 pre-adipocytes (American Type Culture Collection, Manassas, Va.) using the Targefect-BAC transfection kit. (Targeting Systems, Santee, Calif.). Briefly, 3T3-L1 cells were cultured in complete DMEM high glucose media (Invitrogen) at 37° C. for 2 days until confluence. After digestion with 2 ml trypsin (Mediatech, Herndon, Va.), the cells were resuspended in 6 ml high glucose DMEM (Mediatech) and then aliquoted into a 24 well plate. […] On the day of the reading, the cells were washed with 500 μl PBS and lysed with 100 μl lysis reagent (Promega, Madison, Wis.). After 15 minutes, lysed cells were collected and luciferase activity for each concentration was calculated using the Dual-Luciferase reporter assay system (Promega) and TD-20/20 Single-Tube Luminometer (Turner Biosystems, Sunnyvale, Calif.) according to manufacturers' instructions. Relative luciferase activity (RLA) was calculated as a ratio of the chemiluminescence 10 seconds after the Luciferase Assay Reagent II (Promega) was added over the chemiluminescence 10 seconds after the Stop&Glo Reagent (Promega). […]
On the technique in general: In a reporter assay the amount or activity of a reporter protein is the signal.

For `CC1=CC(=O)CC(C)(C)C1(O)/C=C/C(C)=C\C(=O)O` (racemic) [ABA, abscisic acid], in the experiment on db/db mice (100 to 800 mg ABA/kg diet), the “fasting blood glucose (FBG) concentrations versus control diet” value is “significantly lower”. Further, the Fasting glucose was 219.6^b mg/dL in the experiment with db/db mice (Experiment 1, 100 mg ABA/kg diet); 210.2^b mg/dL in the experiment with db/db mice (Experiment 1, 200 mg ABA/kg diet); 185.6^a mg/dL with db/db mice (Experiment 1, 400 mg ABA/kg diet); 202.0^b mg/dL in the experiment on db/db mice (Experiment 1, 800 mg ABA/kg diet); 190.7^b mg/dL with db/db mice (Experiment 2, 100 mg ABA/kg diet). At PPAR γ (50 μM ABA), the “PPAR γ activity at 50 μM versus 10 μM” value was “No additional increase in PPAR γ activity”. In addition, the “potency relative to rosiglitazone (times less potent)” value on PPAR γ (in vitro, 3T3-L1) amounted to 10 fold. For the same compound, the “ABA concentration at which relative luciferase activity begins to be significantly increased” value on PPAR γ (racemic ABA 1, 2.5, 5, 10, 50 μM, 24 hours) came to 10 µM.
